Assay results: ChEMBL document CHEMBL1126541, “Novel water soluble phosphate prodrugs of taxol possessing in vivo antitumor activity” (1993)

Columns and labels:
Type in all cases: functional, Mus musculus
[1] = system: M109; assay: In vivo antitumor activity of the taxol was determined in M109 (Murine lung carcinoma cells) tumor model after (ip) administration in 10% Tween 80 in saline on days1, 5, and 9 at a dose of 30 mg/kg/injection in presence of Taxol
[2] = system: M109; assay: In vivo antitumor activity in M109 (Murine lung carcinoma cells) tumor model after (ip) administration on days 1, 5,and 9 at dose of 100 mg/kg/injection.
[3] = system: M109; assay: In vivo antitumor activity of the taxol was determined in M109 (Murine lung carcinoma cells) tumor model after (ip) administration in 10% Tween 80 in saline on days 5 and 8 at dose of 40 mg/kg/injection in presence of Taxol
[4] = system: M109; assay: In vivo antitumor activity in M109 (Murine lung carcinoma cells) tumor model after (ip) administration on days 5 and 8 at dose of 70 mg/kg/injection.
[5] = system: M109; assay: In vivo antitumor activity in M109 (Murine lung carcinoma cells) tumor model after (ip) administration on days 5 and 8 at dose of 140 mg/kg/injection.

Structure (SMILES)	T/C [1] [%]	T/C [2] [%]	T/C [3] [%]	T/C [4] [%]	T/C [5] [%]
CC(=O)O[C@H]1C(=O)[C@@]2(C)[C@H]([C@H](OC(=O)c3ccccc3)[C@]3(O)C[C@H](OC(=O)[C@H](OC(=O)CC(C)(C)c4c(C)cc(C)cc4OP(=O)([O-])[O-])[C@@H](NC(=O)c4ccccc4)c4ccccc4)C(C)=C1C3(C)C)[C@]1(OC(C)=O)CO[C@@H]1C[C@@H]2O.[Na+].[Na+]	275	144			
CC(=O)O[C@H]1C(=O)[C@]2(C)[C@@H](OC(=O)CC(C)(C)c3c(C)cc(C)cc3OP(=O)([O-])[O-])C[C@H]3OC[C@@]3(OC(C)=O)[C@H]2[C@H](OC(=O)c2ccccc2)[C@]2(O)C[C@H](OC(=O)[C@H](O)[C@@H](NC(=O)c3ccccc3)c3ccccc3)C(C)=C1C2(C)C.[Na+].[Na+]			144	153	156
